In US20100324072A1, “PYRROLOPYRIDINE DERIVATIVES AND THEIR USE AS BACE INHIBITORS” (ASTRAZENECA AB, priority 2007, published 2010):

Molecular target: T1, human β-Secretase (Homo sapiens, UniProt P56817)
T1 construct: The soluble part of the human β-Secretase (AA 1-AA 460) was cloned; Fc domain of IgG1 (C); made in house
Assay: TR-FRET assay (β-secretase enzyme cleavage of (Europium)CEVNLDAEFK(Qsy7) substrate)
Format: biochemical
Details: sBACE-Fc 2.7 μg/ml, substrate 100 nM, pH 4.5, 15 min at RT
Experimental: The enzyme used in the IGEN Cleavage-, Fluorescent-, TR-FRET- and BiaCore assays is described as follows:
The soluble part of the human β-Secretase (AA 1-AA 460) was cloned into the ASP2-Fc10-1-IRES-GFP-neoK mammalian expression vector. The gene was fused to the Fc domain of IgG1 (affinity tag) and stably cloned into HEK 293 cells. Purified sBACE-Fc is stored in Tris buffer, pH 9.2 and has a purity of 95%.
Enzyme was diluted to 6 μg/mL and the substrate (Europium)CEVNLDAEFK(Qsy7) to 200 nM in reaction buffer (NaAcetate, chaps, triton x-100, EDTA pH 4.5). Compounds were diluted to the desired concentration in dimethyl sulfoxide (final dimethyl sulfoxide concentration in assay is 5%). The assay was done in a Costar 384 well round bottom, low volume, non-binding surface plate (Corning #3676). Enzyme (9 μL) and 1 μL of compound in dimethyl sulfoxide was added to the plate, mixed and pre-incubated for 10 min. Substrate (10 μL) was added and the reaction proceeded in the dark for 15 min at RT. The reaction was stopped with the addition of 7 μl, NaAcetate, pH 9. The fluorescence of the product was measured on a Victor II plate reader with an excitation wavelength of 340 nm and an emission wavelength of 615 nm. The final concentration of the enzyme was 2.7 μg/ml and the final concentration of the substrate was 100 nM (Km of 290 nM). […]

T1 sequence (P56817 22-460): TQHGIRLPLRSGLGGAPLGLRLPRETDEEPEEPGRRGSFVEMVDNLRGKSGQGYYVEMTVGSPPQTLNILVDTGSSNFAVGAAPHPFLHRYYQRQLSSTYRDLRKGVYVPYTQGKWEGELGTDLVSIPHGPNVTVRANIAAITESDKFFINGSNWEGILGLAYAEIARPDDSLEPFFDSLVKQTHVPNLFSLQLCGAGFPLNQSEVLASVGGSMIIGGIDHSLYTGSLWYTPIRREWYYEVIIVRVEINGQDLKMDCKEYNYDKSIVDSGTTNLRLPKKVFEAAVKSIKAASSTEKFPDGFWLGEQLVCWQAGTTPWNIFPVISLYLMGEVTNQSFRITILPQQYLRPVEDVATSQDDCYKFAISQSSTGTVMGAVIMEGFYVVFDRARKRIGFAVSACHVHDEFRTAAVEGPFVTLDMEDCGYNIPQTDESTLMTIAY

- Ki: 88 nM
Compound: COc1cccc(-c2cccc(C3(c4ccncc4)N=C(N)c4cccnc43)c2)c1F (stereo not shown) [Example 23, 7-(2′-Fluoro-3′-methoxybiphenyl-3-yl)-7-pyridin-4-yl-7H-pyrrolo[3,4-b]pyridin-5-amine]
